Columns and labels:
Assay in all cases: Off-target primary and secondary screen
Assay type in all cases: binding
Alpha1B = Alpha1B (Homo sapiens, UniProt P35368); settings: 10 mM sample
D4 = D4 (Homo sapiens, UniProt P21917); settings: 10 mM sample
Alpha2C = Alpha2C (Homo sapiens, UniProt P18825); settings: 10 mM sample
5-HT3 = 5-HT3 (Homo sapiens, UniProt P46098); settings: 10 mM sample
5-HT7A = 5-HT7A (Homo sapiens, UniProt P34969); settings: 10 mM sample
Alpha2A = Alpha2A (Homo sapiens, UniProt P08913); settings: 10 mM sample
5-HT5A = 5-HT5A (Homo sapiens, UniProt P47898); settings: 10 mM sample
5-HT5A, sequence (P47898 whole entry, species assumed): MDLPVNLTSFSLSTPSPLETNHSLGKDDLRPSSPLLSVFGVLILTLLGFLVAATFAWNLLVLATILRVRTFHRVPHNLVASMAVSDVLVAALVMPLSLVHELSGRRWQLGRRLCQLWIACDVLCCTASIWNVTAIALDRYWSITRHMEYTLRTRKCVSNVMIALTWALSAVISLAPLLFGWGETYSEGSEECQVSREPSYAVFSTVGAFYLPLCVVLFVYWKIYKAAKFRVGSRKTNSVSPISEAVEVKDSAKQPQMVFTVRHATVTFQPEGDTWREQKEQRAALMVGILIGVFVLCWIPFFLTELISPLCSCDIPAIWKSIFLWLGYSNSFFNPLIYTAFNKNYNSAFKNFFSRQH

5-HT2B = 5-HT2B (Homo sapiens, UniProt P41595); settings: 10 mM sample
D3 = D3 (Homo sapiens, UniProt P35462); settings: 10 mM sample
PBR = PBR (Homo sapiens, UniProt P30536); settings: for Primary screen AVE (% inhib) ± SD: 10 mM sample
PBR, sequence (P30536 whole entry, species assumed): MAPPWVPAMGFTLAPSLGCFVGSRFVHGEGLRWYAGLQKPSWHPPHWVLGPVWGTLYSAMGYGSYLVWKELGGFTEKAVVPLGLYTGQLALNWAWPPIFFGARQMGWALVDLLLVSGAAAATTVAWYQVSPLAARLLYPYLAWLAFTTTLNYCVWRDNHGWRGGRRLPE

M5 = M5 (Homo sapiens, UniProt P08912); settings: 10 mM sample
M5, sequence (P08912 whole entry): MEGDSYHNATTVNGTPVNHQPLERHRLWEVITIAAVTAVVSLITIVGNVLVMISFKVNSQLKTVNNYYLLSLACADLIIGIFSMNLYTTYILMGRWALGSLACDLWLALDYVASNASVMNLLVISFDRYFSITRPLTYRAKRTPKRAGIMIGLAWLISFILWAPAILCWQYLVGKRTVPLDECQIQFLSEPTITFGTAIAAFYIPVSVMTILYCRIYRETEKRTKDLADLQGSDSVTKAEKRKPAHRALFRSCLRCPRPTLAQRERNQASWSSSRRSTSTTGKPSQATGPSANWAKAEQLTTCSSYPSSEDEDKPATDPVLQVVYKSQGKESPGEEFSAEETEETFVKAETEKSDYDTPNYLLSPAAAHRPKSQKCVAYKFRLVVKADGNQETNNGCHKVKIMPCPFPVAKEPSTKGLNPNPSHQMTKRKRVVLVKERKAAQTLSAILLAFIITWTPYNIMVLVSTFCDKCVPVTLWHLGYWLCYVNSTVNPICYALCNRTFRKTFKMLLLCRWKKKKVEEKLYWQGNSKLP

M4 = M4 (Homo sapiens, UniProt P08173); settings: 10 mM sample
Sigma 2 = Sigma 2 (Homo sapiens, UniProt Q5BJF2); settings: 10 mM sample
Sigma 2, sequence (Q5BJF2 whole entry): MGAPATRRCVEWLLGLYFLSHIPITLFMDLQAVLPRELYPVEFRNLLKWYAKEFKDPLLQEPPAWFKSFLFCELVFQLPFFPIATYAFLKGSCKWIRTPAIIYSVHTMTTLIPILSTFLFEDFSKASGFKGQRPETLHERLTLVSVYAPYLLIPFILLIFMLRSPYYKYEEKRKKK

H3 = H3 (Homo sapiens, UniProt Q9Y5N1); settings: 10 mM sample
H3, sequence (Q9Y5N1 whole entry): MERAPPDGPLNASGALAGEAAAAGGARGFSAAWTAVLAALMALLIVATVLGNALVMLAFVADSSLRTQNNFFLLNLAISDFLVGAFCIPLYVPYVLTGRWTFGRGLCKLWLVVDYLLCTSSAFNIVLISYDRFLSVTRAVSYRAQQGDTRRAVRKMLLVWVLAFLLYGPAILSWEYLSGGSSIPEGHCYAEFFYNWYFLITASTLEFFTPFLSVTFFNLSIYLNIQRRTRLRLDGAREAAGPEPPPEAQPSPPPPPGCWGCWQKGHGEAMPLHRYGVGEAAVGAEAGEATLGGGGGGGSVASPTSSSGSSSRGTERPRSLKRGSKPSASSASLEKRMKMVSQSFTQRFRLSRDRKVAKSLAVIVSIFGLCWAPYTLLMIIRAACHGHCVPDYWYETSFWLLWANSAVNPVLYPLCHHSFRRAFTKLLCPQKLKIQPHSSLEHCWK

5-HT2A = 5-HT2A (Homo sapiens, UniProt P28223); settings: for Primary screen AVE (% inhib) ± SD: 10 mM sample
5-HT2A, sequence (P28223 whole entry, species assumed): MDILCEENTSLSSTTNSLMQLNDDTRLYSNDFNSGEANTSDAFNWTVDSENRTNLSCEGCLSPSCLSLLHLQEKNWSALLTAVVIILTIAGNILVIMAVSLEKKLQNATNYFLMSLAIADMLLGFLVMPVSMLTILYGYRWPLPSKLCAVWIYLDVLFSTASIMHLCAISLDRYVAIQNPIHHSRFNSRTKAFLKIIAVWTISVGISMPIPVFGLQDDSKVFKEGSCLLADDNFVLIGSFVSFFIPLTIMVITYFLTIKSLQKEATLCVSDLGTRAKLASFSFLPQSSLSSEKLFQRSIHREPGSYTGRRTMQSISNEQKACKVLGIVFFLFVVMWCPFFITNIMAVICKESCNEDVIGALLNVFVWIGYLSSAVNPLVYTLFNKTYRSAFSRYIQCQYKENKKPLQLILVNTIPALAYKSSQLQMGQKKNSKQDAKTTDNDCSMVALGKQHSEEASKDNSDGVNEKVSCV

M2 = M2 (Homo sapiens, UniProt P08172); settings: 10 mM sample
Beta2 = Beta2 (Homo sapiens, UniProt P07550); settings: 10 mM sample
KOR = KOR (Homo sapiens, UniProt P41145); settings: 10 mM sample
KOR, sequence (P41145 whole entry): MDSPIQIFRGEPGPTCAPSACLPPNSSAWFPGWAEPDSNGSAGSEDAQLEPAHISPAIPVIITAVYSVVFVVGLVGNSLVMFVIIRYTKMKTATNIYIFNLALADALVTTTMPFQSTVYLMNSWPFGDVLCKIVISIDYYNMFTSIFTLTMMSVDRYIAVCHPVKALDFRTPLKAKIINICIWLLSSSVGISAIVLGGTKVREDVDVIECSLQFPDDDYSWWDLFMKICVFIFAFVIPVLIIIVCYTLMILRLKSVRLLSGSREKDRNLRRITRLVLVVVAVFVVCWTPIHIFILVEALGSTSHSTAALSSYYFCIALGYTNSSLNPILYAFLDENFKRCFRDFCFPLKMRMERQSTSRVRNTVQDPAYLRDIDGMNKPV

BZP Rat brain site = settings: for Primary screen AVE (% inhib) ± SD: 10 mM sample
Beta3 = Beta3 (Homo sapiens, UniProt P13945); settings: 10 mM sample
H2 = H2 (Homo sapiens, UniProt P25021); settings: 10 mM sample
Alpha1A = Alpha1A (Homo sapiens, UniProt P35348); settings: 10 mM sample
Alpha1A, sequence (P35348 whole entry): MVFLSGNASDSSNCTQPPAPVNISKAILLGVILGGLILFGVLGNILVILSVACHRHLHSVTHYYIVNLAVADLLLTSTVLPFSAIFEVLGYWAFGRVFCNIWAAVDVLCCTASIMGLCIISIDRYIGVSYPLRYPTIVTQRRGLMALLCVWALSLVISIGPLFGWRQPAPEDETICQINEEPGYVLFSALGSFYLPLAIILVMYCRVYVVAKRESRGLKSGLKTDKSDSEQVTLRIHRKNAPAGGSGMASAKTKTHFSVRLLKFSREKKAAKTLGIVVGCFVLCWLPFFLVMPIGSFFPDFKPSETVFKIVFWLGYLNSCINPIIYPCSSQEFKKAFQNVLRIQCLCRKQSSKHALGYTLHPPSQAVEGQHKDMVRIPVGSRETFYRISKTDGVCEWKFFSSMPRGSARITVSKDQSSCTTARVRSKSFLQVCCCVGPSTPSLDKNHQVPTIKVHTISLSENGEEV

H4 = H4 (Homo sapiens, UniProt Q9H3N8); settings: 10 mM sample
H4, sequence (Q9H3N8 whole entry): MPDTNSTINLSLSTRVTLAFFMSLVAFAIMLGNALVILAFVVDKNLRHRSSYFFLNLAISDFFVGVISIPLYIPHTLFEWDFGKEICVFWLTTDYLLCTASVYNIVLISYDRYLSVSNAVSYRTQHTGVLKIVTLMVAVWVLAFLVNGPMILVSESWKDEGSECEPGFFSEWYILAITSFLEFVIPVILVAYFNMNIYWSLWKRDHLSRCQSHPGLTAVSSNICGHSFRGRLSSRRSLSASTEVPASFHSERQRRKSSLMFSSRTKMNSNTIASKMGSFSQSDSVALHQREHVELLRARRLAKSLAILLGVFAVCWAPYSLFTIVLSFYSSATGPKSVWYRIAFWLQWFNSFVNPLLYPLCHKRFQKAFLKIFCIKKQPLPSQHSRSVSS

5-HT6 = 5-HT6 (Homo sapiens, UniProt P50406); settings: 10 mM sample
5-HT1B = 5-HT1B (Homo sapiens, UniProt P28222); settings: 10 mM sample
H1 = H1 (Homo sapiens, UniProt P35367); settings: 10 mM sample
D1 = D1 (Homo sapiens, UniProt P21728); settings: 10 mM sample
NET = NET (Homo sapiens, UniProt P23975); settings: 10 mM sample
5-HT2C = molecular target: T1, 5-HT2C (Homo sapiens, UniProt P28335); settings: for Primary screen AVE (% inhib) ± SD: 10 mM sample
T1 sequence (P28335 33-458): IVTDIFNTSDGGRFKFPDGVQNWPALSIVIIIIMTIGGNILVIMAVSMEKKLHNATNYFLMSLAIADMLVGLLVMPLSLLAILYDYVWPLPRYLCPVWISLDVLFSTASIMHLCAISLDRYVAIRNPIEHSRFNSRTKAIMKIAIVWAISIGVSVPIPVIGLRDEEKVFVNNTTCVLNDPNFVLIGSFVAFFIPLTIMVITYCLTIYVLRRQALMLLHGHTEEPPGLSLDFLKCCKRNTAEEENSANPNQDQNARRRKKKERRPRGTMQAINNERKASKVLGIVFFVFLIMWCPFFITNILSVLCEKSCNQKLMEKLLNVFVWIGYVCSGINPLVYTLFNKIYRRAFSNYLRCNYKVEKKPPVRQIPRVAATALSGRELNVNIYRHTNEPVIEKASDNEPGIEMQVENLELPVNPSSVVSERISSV

M1 = M1 (Homo sapiens, UniProt P11229); settings: 10 mM sample
DOR = DOR (Homo sapiens, UniProt P41143); settings: 10 mM sample
DAT = DAT (Homo sapiens, UniProt Q01959); settings: 10 mM sample
DAT, sequence (Q01959 whole entry, species assumed): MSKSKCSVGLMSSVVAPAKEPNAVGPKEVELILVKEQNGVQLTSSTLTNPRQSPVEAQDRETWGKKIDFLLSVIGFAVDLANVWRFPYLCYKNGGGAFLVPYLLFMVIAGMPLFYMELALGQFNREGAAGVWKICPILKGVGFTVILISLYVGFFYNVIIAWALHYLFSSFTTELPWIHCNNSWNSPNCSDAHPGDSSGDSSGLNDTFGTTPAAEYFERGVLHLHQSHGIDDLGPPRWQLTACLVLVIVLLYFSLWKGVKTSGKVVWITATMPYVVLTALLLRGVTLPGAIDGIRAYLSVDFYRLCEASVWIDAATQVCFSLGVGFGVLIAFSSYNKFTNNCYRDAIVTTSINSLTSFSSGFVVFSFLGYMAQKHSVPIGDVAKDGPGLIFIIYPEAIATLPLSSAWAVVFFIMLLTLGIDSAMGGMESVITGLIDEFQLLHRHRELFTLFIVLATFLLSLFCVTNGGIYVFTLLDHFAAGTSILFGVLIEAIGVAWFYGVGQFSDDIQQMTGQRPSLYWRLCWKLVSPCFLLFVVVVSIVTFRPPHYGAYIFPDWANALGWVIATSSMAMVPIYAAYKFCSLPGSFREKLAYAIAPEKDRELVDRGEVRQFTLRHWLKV

Alpha1B, sequence (P35368 whole entry): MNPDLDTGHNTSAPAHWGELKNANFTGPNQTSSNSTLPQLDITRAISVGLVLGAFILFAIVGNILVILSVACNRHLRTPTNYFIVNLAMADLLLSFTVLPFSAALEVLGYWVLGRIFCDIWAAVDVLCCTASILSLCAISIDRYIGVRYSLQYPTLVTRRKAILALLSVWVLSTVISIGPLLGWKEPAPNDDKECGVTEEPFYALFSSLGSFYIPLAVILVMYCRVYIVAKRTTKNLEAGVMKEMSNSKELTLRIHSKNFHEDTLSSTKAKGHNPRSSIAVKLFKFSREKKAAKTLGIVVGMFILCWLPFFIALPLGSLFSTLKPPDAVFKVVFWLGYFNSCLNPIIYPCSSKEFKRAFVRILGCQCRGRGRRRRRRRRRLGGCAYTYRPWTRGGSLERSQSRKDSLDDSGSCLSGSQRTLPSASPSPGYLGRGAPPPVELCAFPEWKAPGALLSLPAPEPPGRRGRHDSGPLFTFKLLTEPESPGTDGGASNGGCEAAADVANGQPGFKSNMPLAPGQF
D4, sequence (P21917 whole entry): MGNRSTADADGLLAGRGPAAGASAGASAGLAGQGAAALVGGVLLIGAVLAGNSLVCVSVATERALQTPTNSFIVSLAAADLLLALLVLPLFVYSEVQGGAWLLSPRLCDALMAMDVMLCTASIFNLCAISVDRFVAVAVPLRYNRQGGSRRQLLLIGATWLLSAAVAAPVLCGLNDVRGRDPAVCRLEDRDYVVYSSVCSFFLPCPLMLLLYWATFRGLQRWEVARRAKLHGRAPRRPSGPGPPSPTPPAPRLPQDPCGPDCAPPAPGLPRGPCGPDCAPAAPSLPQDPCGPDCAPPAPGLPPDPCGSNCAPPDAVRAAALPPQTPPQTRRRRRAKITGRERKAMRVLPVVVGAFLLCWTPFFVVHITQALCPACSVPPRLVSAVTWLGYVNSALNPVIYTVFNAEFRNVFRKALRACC

For O=c1c2sc(Cl)cc2n2c(=S)[nH]nc2n1CC1CC1 [Compound 19, 7-Chloro-4-(cyclopropylmethyl)-1-thioxo-2,4-dihydrothieno[2,3-e][1,2,4]triazolo[4,3-a]pyrimidin-5 (1H)-one], the “Primary screen AVE (% inhib) ± SD” value (Alpha1B) was -7.7 ± 9.7 % inhib, the “Primary screen AVE (% inhib) ± SD” value (D4) was -24.3 ± 4.4 % inhib and the “Primary screen AVE (% inhib) ± SD” value (Alpha2C) was 10.6 ± 4.2 % inhib. The “Primary screen AVE (% inhib) ± SD” value (5-HT3) was -3.8 ± 3.1 % inhib, the “Primary screen AVE (% inhib) ± SD” value (5-HT7A) was -88.1 ± 20.8 % inhib and the “Primary screen AVE (% inhib) ± SD” value (Alpha2A) was -6.3 ± 7.9 % inhib. For the same compound, the “Primary screen AVE (% inhib) ± SD” value (5-HT5A) was -1.4 ± 14.4 % inhib, the “Primary screen AVE (% inhib) ± SD” value (5-HT2B) was -17.7 ± 11.2 % inhib and the “Primary screen AVE (% inhib) ± SD” value (D3) was -7.0 ± 21.7 % inhib. For the same compound, the Ki (PBR) was over 10 µM, the “Primary screen AVE (% inhib) ± SD” value (PBR) was 5.3 ± 8.3 % inhib and the “Primary screen AVE (% inhib) ± SD” value (M5) was 130.2 ± 3.0 % inhib. The “Primary screen AVE (% inhib) ± SD” value (M4) was -8.8 ± 4.8 % inhib, the “Primary screen AVE (% inhib) ± SD” value (Sigma 2) was 40.6 ± 9.5 % inhib and the “Primary screen AVE (% inhib) ± SD” value (H3) was -18.5 ± 3.8 % inhib. The “Primary screen AVE (% inhib) ± SD” value (5-HT2A) was 37.0 ± 10.4 % inhib, the “Primary screen AVE (% inhib) ± SD” value (M2) was 21.1 ± 19.7 % inhib and the “Primary screen AVE (% inhib) ± SD” value (Beta2) was -2.1 ± 19.7 % inhib. For the same compound, the “Primary screen AVE (% inhib) ± SD” value (KOR) was -0.3 ± 8.7 % inhib, the Ki (BZP Rat brain site) was over 10 µM and the “Primary screen AVE (% inhib) ± SD” value (BZP Rat brain site) was 2.3 ± 21.8 % inhib. The “Primary screen AVE (% inhib) ± SD” value (Beta3) was 17.9 ± 8.6 % inhib, the “Primary screen AVE (% inhib) ± SD” value (H2) was -27.4 ± 17.1 % inhib and the “Primary screen AVE (% inhib) ± SD” value (Alpha1A) was -9.4 ± 18.0 % inhib. For the same compound, the “Primary screen AVE (% inhib) ± SD” value (H4) was -4.5 ± 11.4 % inhib, the “Primary screen AVE (% inhib) ± SD” value (5-HT6) was -5.0 ± 11.7 % inhib and the “Primary screen AVE (% inhib) ± SD” value (5-HT1B) was 17.7 ± 42.2 % inhib. The “Primary screen AVE (% inhib) ± SD” value (H1) was 11.5 ± 2.8 % inhib, the “Primary screen AVE (% inhib) ± SD” value (D1) was -17.2 ± 25.0 % inhib and the “Primary screen AVE (% inhib) ± SD” value (NET) was -39.3 ± 20.6 % inhib. The “Primary screen AVE (% inhib) ± SD” value (5-HT2C) was -18.3 ± 22.0 % inhib, the “Primary screen AVE (% inhib) ± SD” value (M1) was 39.3 ± 10.7 % inhib and the “Primary screen AVE (% inhib) ± SD” value (DOR) was -13.5 ± 6.8 % inhib. The “Primary screen AVE (% inhib) ± SD” value (DAT) was 43.9 ± 13.0 % inhib.

Cn1cnc([N+](=O)[O-])c1Sc1nnc2n(CC3CC3)c(=O)c3sc(Cl)cc3n12 [Compound 20, 7-Chloro-4-(cyclopropylmethyl)-1-((1-methyl-4-nitro-1H-imidazol-5-yl)thio) thieno[2,3-e][1,2,4]triazolo[4,3-a]pyrimidin-5 (4H)-one] was tested, and the “Primary screen AVE (% inhib) ± SD” value (Alpha1B) was -1.6 ± 9.5 % inhib, the “Primary screen AVE (% inhib) ± SD” value (D4) was 12.6 ± 4.9 % inhib and the “Primary screen AVE (% inhib) ± SD” value (Alpha2C) was 6.4 ± 7.5 % inhib. For the same compound, the “Primary screen AVE (% inhib) ± SD” value (5-HT3) was -0.8 ± 4.6 % inhib, the “Primary screen AVE (% inhib) ± SD” value (5-HT7A) was 14.9 ± 9.9 % inhib and the “Primary screen AVE (% inhib) ± SD” value (Alpha2A) was 9.4 ± 4.6 % inhib. The “Primary screen AVE (% inhib) ± SD” value (5-HT5A) was 24.5 ± 9.3 % inhib, the “Primary screen AVE (% inhib) ± SD” value (5-HT2B) was -0.5 ± 5.0 % inhib and the “Primary screen AVE (% inhib) ± SD” value (D3) was 12.8 ± 12.8 % inhib. The Ki (PBR) was over 10 µM, the “Primary screen AVE (% inhib) ± SD” value (PBR) was -2.1 ± 5.3 % inhib and the “Primary screen AVE (% inhib) ± SD” value (M5) was 95.0 ± 7.4 % inhib. The “Primary screen AVE (% inhib) ± SD” value (M4) was -8.7 ± 9.5 % inhib, the “Primary screen AVE (% inhib) ± SD” value (Sigma 2) was 40.7 ± 5.8 % inhib and the “Primary screen AVE (% inhib) ± SD” value (H3) was -12.5 ± 7.9 % inhib. The Ki (5-HT2A) was 9.2 µM, the “Primary screen AVE (% inhib) ± SD” value (5-HT2A) was 52.4 ± 11.8 % inhib and the “Primary screen AVE (% inhib) ± SD” value (M2) was 9.3 ± 19.3 % inhib. The “Primary screen AVE (% inhib) ± SD” value (Beta2) was 0.1 ± 10.6 % inhib, the “Primary screen AVE (% inhib) ± SD” value (KOR) was 3.7 ± 4.1 % inhib and the Ki (BZP Rat brain site) was over 10 µM. The “Primary screen AVE (% inhib) ± SD” value (BZP Rat brain site) was 9.5 ± 7.6 % inhib, the “Primary screen AVE (% inhib) ± SD” value (Beta3) was 30.8 ± 22.8 % inhib and the “Primary screen AVE (% inhib) ± SD” value (H2) was -16.4 ± 21.5 % inhib. For the same compound, the “Primary screen AVE (% inhib) ± SD” value (Alpha1A) was 40.6 ± 10.5 % inhib, the “Primary screen AVE (% inhib) ± SD” value (H4) was 8.2 ± 3.1 % inhib and the “Primary screen AVE (% inhib) ± SD” value (5-HT6) was 21.9 ± 15.6 % inhib. The “Primary screen AVE (% inhib) ± SD” value (5-HT1B) was 60.8 ± 40.9 % inhib, the “Primary screen AVE (% inhib) ± SD” value (H1) was 35.8 ± 11.9 % inhib and the “Primary screen AVE (% inhib) ± SD” value (D1) was 21.5 ± 6.8 % inhib. The “Primary screen AVE (% inhib) ± SD” value (NET) was -56.8 ± 10.5 % inhib, the Ki (5-HT2C) was 1.3 µM and the “Primary screen AVE (% inhib) ± SD” value (5-HT2C) was 59.5 ± 3.0 % inhib. For the same compound, the “Primary screen AVE (% inhib) ± SD” value (M1) was 50.7 ± 26.1 % inhib, the “Primary screen AVE (% inhib) ± SD” value (DOR) was -1.0 ± 4.8 % inhib and the “Primary screen AVE (% inhib) ± SD” value (DAT) was 54.0 ± 10.7 % inhib.
